Data taken from patent publication US20040082503A1, “Methods for treatment of diabetes using peptide analogues of insulin” (Neurocrine Biosciences, Inc., priority 1998, published 2004).

Tests used:
[1] = system: lymph node and spleen cells from immunized NOD mice; assay: Immunogenicity in NOD mice: proliferative response of lymph node/spleen cells of immunized mice; format: cell-based, NOD mouse
Protocol: FIGS. 17A and 17B are graphs showing the ability of a double substituted peptide (A^16,19) to evoke an immune response. Five female NOD mice were immunized subcutaneously with 20 mg/kg of soluble NBI-6024 on days 1, 6 and 12. On day 15, the mice were sacrificed, the inguinal lymph node cells removed and culture in the presence of varying concentrations (0-50 μM) of either NBI-6024 (FIG. 17A) or insulin B chain (9-23) peptide (FIG. 17B). The extent of T-cell proliferation was determined using ^3H-thymidine incorporation. The response is expressed as mean CPM±SEM of triplicate cultures.
Groups of 3-4 NOD mice were immunized with 100-400 μg of peptide analogues subcutaneously in mannitol acetate buffer three times within a period of 10-15 days. Following the last immunization, lymph node cells and/or spleen cells were used in a proliferation assay in which different concentrations of the immunizing peptide were cultured with the cells for 3-4 days. The last 18 hours of culture included tritiated thymidine. Cells were harvested and counted in a scintillation counter and the response is expressed as CPM±SEM.
The ability of the double substituted peptide NBI-6024 (A^16,19) to induce a cellular immune response in NOD mouse strain was next determined. Two female NOD mice were immunized with 10 mg/kg NBI-6024 either as an aqueous suspension or, as a control, emulsified in complete Freund's adjuvant (CFA). On Day 8, three days following the last injection, the mice were sacrificed, the spleen and inguinal lymph node cells were removed and pooled, and a single-cell suspension was prepared. Cells were cultured in the presence of varying concentrations (0-25 μM) of NBI-6024. The ability of these lymphoid cells to proliferate in response to NBI-6024 was measured in vitro by [^3H]-thymidine incorporation.

[2] = system: Murine NOD T cell clone PD12-2.35 response to insulin B chain (9-23) peptide; assay: Antagonism of T cell proliferation assay, clone PD12-2.35; format: cell-based, mouse (NOD); conditions: for % Inhibition: N/A = no inhibition observed
Protocol: Peptide analogues of B chain (9-23) containing alanine substitutions at residue 12, 13, 15 or 16 or the doubly substituted peptide at positions 16 and 19 (A^16,19; NBI-6024) were prepared as described in Example 1. T cell antagonism was detected by evaluating the ability of the peptide analogues to inhibit T cell proliferation induced by native B chain (9-23) (SEQ ID NO:2). In this assay, antigen presenting cells were first irradiated and then incubated with the competing peptide analogue and the native B chain (9-23) peptide. T cells were then added to the culture. Various concentrations of candidate peptide analogues were included in cultures which were incubated for a total of 4 days. Following this incubation period, each culture was pulsed with 1 μCi of [^3H]-thymidine for an additional 12-18 hours. Cultures were then harvested on fiberglass filters and counted as above. Mean CPM and standard error of the mean were calculated from data determined in triplicate cultures.
Within Table 4, the control peptide, NBI-5096, is an unrelated peptide from myelin basic protein. The percent inhibition was calculated as: (1−experimental cpm/insulin peptide cpm)×100%.

[3] = system: insulin B chain (9-23) responsive T cell lines from diabetic patients; assay: Proliferation of T cell lines from diabetic patients; format: cell-based, human; conditions: for Stimulation Index: 50 μM peptide
Protocol: FIGS. 4-6 are histograms illustrating the proliferative response (measured in cpm) of T cell lines from different diabetic patients to the native B chain (9-23) peptide or to representative peptide analogues. Peripheral blood mononuclear cells were isolated from diabetic patients and cultured in the presence of insulin B chain (9-23) peptide. After three rounds of restimulation with insulin B chain (9-23), 1×10^5 T-cells and 7×10^4 irradiated autologous PBMCs were added to each well in a round bottom 96-well plate in complete medium. Cells were cultured for 5 days with NBI-6024 (insulin B chain 9-23 with alanine substitutions at positions 16 and 19), insulin B chain (9-23) or medium only. On day 4, the cells were pulsed with ^3H-thymidine and re-cultured for an additional 18 hours. The cultures were then harvested, counted using liquid scintillation, and the data was expressed as the mean counts per minute (cpm) of replicate samples±standard error of the mean (sem).
FIG. 7 is a histogram illustrating the proliferative response (measured in cpm) of a T cell line from a diabetic patient to the native B chain (9-23) peptide or to representative peptide analogues containing alanine substitutions as indicated. Peripheral blood mononuclear cells were isolated from diabetic patients and cultured in the presence of insulin B chain (9-23) peptide. After three rounds of restimulation with insulin B chain (9-23), 1×10^5 T-cells and 7×10^4 irradiated autologous PBMCs were added to each well in a round bottom 96-well plate in complete medium. Cells were cultured for 5 days with analogue, insulin B chain (9-23) or medium only (BKG), as indicated. On day 4, the cells were pulsed with ^3H-thymidine and re-cultured for an additional 18 hours. The cultures were then harvested, counted using liquid scintillation, and the data was expressed as the mean counts per minute (cpm) of replicate samples±standard error of the mean (sem).
Peptide analogues of B chain (9-23) containing alanine substitutions at residues 13, 15, 16 or 17 or the doubly substituted alanine analog A^16, 19 (NBI-6024) were prepared as described in Example 1. T cell lines from diabetic patients were prepared by isolating lymphocytes from the blood of the patient by subjecting the blood to a density gradient separation. Isolated lymphocytes were then cultured in the presence of the insulin B chain (9-23) peptide (10 μM) and recombinant human IL-2 in the presence of 5-10% of autologous serum and irradiated autologous peripheral blood lymphocytes in culture medium. Four to five days later cells were harvested and the cycle repeated for 2 or 3 times.
Proliferation of the T cell line, in response to the native B chain (9-23) peptide (SEQ ID NO:2) or to the peptide analogs, was measured by culturing 25,000 to 100,000 T cells in the presence of 50,000-200,000 irradiated autologous PBLs and different concentrations of the insulin B chain (9-23) peptide or a peptide analogue in triplicate cultures. Following 4-5 days of culture, including the last 18 hours with radioactive thymidine, cells were harvested and the associated radioactivity was counted in a liquid scintillation counter. Results are expressed as mean counts per minute for each of the peptide analogues tested.

[4] = T cells of Mouse #1 immunized with soluble NBI-6024, challenge peptide 1 μM, 0 μM 19,130 ± 2191
[5] = T cells of Mouse #1 immunized with soluble NBI-6024, challenge peptide 5 μM
[6] = T cells of Mouse #1 immunized with soluble NBI-6024, challenge peptide 25 μM
[7] = T cells of Mouse #2 immunized with soluble NBI-6024, challenge peptide 1 μM, 0 μM 21,588 ± 2326
[8] = T cells of Mouse #2 immunized with soluble NBI-6024, challenge peptide 5 μM
[9] = T cells of Mouse #2 immunized with soluble NBI-6024, challenge peptide 25 μM
[10] = T cells of Mouse #3 immunized with soluble NBI-6024, challenge peptide 1 μM, 0 μM 24,006 ± 2803
[11] = T cells of Mouse #3 immunized with soluble NBI-6024, challenge peptide 5 μM
[12] = T cells of Mouse #3 immunized with soluble NBI-6024, challenge peptide 25 μM
[13] = B(9-23) 5 μM + 10 μM competing peptide
[14] = B(9-23) 5 μM + 50 μM competing peptide
[15] = patient number 1 (ID 100) PBLs, CPM with antigen/CPM with medium alone
[16] = patient number 8 (ID 1100) PBLs

| Substance | CPM ± SEM [1, 4] | CPM ± SEM [1, 5] | CPM ± SEM [1, 6] | CPM ± SEM [1, 7] | CPM ± SEM [1, 8] | CPM ± SEM [1, 9] | CPM ± SEM [1, 10] | CPM ± SEM [1, 11] | CPM ± SEM [1, 12] | Stimulation Index [3, 15] | Stimulation Index ([3]; patient number 2 (ID 200) PBLs) | Stimulation Index ([3]; patient number 3 (ID 400) PBLs) | Stimulation Index ([3]; patient number 4 (ID 500) PBLs) | Stimulation Index ([3]; patient number 5 (ID 600) PBLs) | Stimulation Index ([3]; patient number 6 (ID 700) PBLs) | Stimulation Index ([3]; patient number 7 (ID 900) PBLs) | Stimulation Index [3, 16] | also measured |
| --- | --- | --- | --- | --- | --- | --- | --- | --- | --- | --- | --- | --- | --- | --- | --- | --- | --- | --- |
| NBI-6024: insulin B chain 9-23 with alanine substitutions at positions 16 and 19 (SHLVEALALVAGERG) | 48,319 ± 1918 CPM | 160,673 ± 2269 CPM | 268,005 ± 11198 CPM | 54,519 ± 5666 CPM | 126,123 ± 13851 CPM | 202,707 ± 8125 CPM | 64,239 ± 9493 CPM | 140,836 ± 11778 CPM | 240,278 ± 15015 CPM | 0.9 | 1.2 | 1.0 | 0.9 | 1.6 | 1.5 | 0.9 | 0.8 | Cross-reactive response to Insulin B chain (9-23) ([1]; CFA-emulsified peptide): not seen; Proliferative response to challenge with the immunizing analogue ([1]; lymph node cells from mice immunized with the analogue in CFA, dose-dependent): strong proliferative response; Cross-reactive response to Insulin B chain (9-23) ([1]; lymphocytes from mice immunized with the soluble peptide): also responded to Insulin B chain (9-23); Proliferative response to NBI-6024 challenge in vitro ([1]; spleen and inguinal lymph node cells after soluble administered peptide): strong proliferative response; CPM ± SEM [2, 13]: 4,441 ± 626 CPM; % Inhibition [2, 13]: 43.0%; CPM ± SEM [2, 14]: 1,389 ± 218 CPM; % Inhibition [2, 14]: 82.0%; Stimulation of diabetic patients' T cell lines and clones responsive to native insulin B chain (9-23) ([3]; FIGS. 4-7, Table 5): do not respond |
| Native 9-23: native peptide, residues 9-23 of human insulin B chain (SEQ ID NO:2) (SHLVEALYLVCGERG; Residues 9-23 of human insulin B chain; listed as Homo sapiens) [reference compound] | 16,870 ± 4469 CPM | 21,292 ± 3216 CPM | 33,317 ± 3619 CPM | 17,262 ± 602 CPM | 19,648 ± 2169 CPM | 30,612 ± 3557 CPM | 25,825 ± 3841 CPM | 58,567 ± 2737 CPM | 113,366 ± 515 CPM | 9.9 | 5.3 | 7.8 | 2.1 | 5.8 | 3.2 | 2.6 | 3.7 | CPM ± SEM ([2]; B(9-23) 5 μM alone, medium only 213 ± 17): 7,840 ± 528 CPM |
